Experiment in all cases: Ba/F3 drug screening, Cell Titer Glo, IC50 Mut/WT
What all share (format): cell-based

Test [1] addresses T1, EGFR E709K L858R (Homo sapiens, UniProt P00533, E709K/L858R).
T1 construct: expressed in transfected cells; host or cells: Ba/F3 cells, retroviral pBabe-Puro vector
The note with it: Classical-Like, 72 hours.

Test [2] has as its target T2, EGFR L833F (Homo sapiens, UniProt P00533, L833F).
T2 construct: expressed in transfected cells; host or cells: Ba/F3 cells, retroviral pBabe-Puro vector
The note with it: Classical-Like, 72 hours.
Method: (§1) Data represent the ratio of the IC50 value for a given TKI for cells with a classical-like EGFR mutation to the IC50 value for cells with wildtype EGFR.
(§2) Ba/F3 cell generation, drug screening, and IC50 approximations. Ba/F3 cells were obtained as a gift from Dr. Gordon Mills (MD Anderson Cancer Center), and maintained in RPMI (Sigma) containing 10% FBS, 1% penicillin/streptomycin, and 10 ng/ml recombinant mIL-3 (R&D Biosystems). To establish stable Ba/F3 cell lines, Ba/F3 cells were transduced with retroviruses containing mutant EGFR plasmids for 12-24 hours.
(§3) After 48-72 hours of transduction, 2 μg/ml puromycin (Invitrogen) was added to Ba/F3 cell lines in complete RPMI. To select for EGFR positive cell lines, cells were stained with PE-EGFR (Biolegend) and sorted by FACS. After sorting, EGFR positive cells were maintained in RPMI containing 10% FBS, 1% penicillin/streptomycin, and 1 ng/ml EGF to support cell viability. […] Shortly, cells were plated in 384-well plates (Greiner Bio-One) at 2000-3000 cells per well in technical triplicate. Seven different concentrations of TKIs or DMSO vehicle were added to reach a final volume of 40 μL per well. After 72 hours, 11 μL of Cell Titer Glo (Promega) was added to each well. Plates were incubated for a minimum of 10 minutes, and bioluminescence was determined using a FLUOstar OPTIMA plate reader (BMG LABTECH). Raw bioluminescence values were normalized to DMSO control treated cells, and values were plotted in GraphPad Prism. […] Drug screens were performed in technical triplicate on each plate and either duplicate or triplicate biological replicates.

Test [3] has as its target T3, EGFR L858R S784F (Homo sapiens, UniProt P00533, L858R/S784F).
T3 construct: expressed in transfected cells; host or cells: Ba/F3 cells, retroviral pBabe-Puro vector (vector made by GeneScript from EGFR L858R)
The note with it: Classical-Like, 72 hours.

Test [4] deals with T4, EGFR S720P (Homo sapiens, UniProt P00533, S720P).
T4 construct: expressed in transfected cells; host or cells: Ba/F3 cells, retroviral pBabe-Puro vector (vector made by GeneScript from EGFR WT)
The following applies: Classical-Like, 72 hours.

The target of test [5] is T5, EGFR K754E (Homo sapiens, UniProt P00533, K754E).
T5 construct: expressed in transfected cells; host or cells: Ba/F3 cells, retroviral pBabe-Puro vector
The note with it: Classical-Like, 72 hours.
Method: as §1, §2, §3

Test [6] addresses T6, EGFR L861Q (Homo sapiens, UniProt P00533, L861Q).
T6 construct: expressed in transfected cells; host or cells: Ba/F3 cells, retroviral pBabe-Puro vector
The note with it: Classical-Like, 72 hours.
Method: as §1, §2, §3

Test [7] concerns the target T7, EGFR S768dupSVD V769M (Homo sapiens, UniProt P00533, INS768MDS/V769M).
T7 construct: expressed in transfected cells; host or cells: Ba/F3 cells, retroviral pBabe-Puro vector (vector made by GeneScript from EGFR S768dupSVD, c.2305G > A)
The note with it: Ex20, 72 hours.
Method: Data represent the ratio of the IC50 value for a given TKI for cells with an ex20ins EGFR mutation to the IC50 value for cells with wildtype EGFR.
as §2
(§4) After 48-72 hours of transduction, 2 μg/ml puromycin (Invitrogen) was added to Ba/F3 cell lines in complete RPMI. To select for EGFR positive cell lines, cells were stained with PE-EGFR (Biolegend) and sorted by FACS. After sorting, EGFR positive cells were maintained in RPMI containing 10% FBS, 1% penicillin/streptomycin, and 1 ng/ml EGF to support cell viability. Drug screening was performed as previously described^41,42. Shortly, cells were plated in 384-well plates (Greiner Bio-One) at 2000-3000 cells per well in technical triplicate. Seven different concentrations of TKIs or DMSO vehicle were added to reach a final volume of 40 μL per well. After 72 hours, 11 μL of Cell Titer Glo (Promega) was added to each well. Plates were incubated for a minimum of 10 minutes, and bioluminescence was determined using a FLUOstar OPTIMA plate reader (BMG LABTECH). Raw bioluminescence values were normalized to DMSO control treated cells, and values were plotted in GraphPad Prism. […] Drug screens were performed in technical triplicate on each plate and either duplicate or triplicate biological replicates. […] Statistical differences between groups were determined by ANOVA as described in the figure legends.

In test [8] the target is T8, EGFR D770insNPG (Homo sapiens, UniProt P00533, INS770NPG).
T8 construct: expressed in transfected cells; host or cells: Ba/F3 cells, retroviral pBabe-Puro vector
The note with it: Ex20, 72 hours.

In test [9] the target is T9, EGFR N771dupN G724S (Homo sapiens, UniProt P00533, DUP771-771/G724S).
T9 construct: expressed in transfected cells; host or cells: Ba/F3 cells, retroviral pBabe-Puro vector (vector made by GeneScript from EGFR G724S, c.2313_2314insAAC)
The note with it: Ex20, 72 hours.

The target of test [10] is T10, EGFR G719A T790M (Homo sapiens, UniProt P00533, G719A/T790M).
T10 construct: expressed in transfected cells; host or cells: Ba/F3
The following applies: T790M-like-3S, 72 hours.
Method: (§5) Data represent the ratio of the IC50 value for a given TKI for cells with a T790M-like-3S EGFR mutation to the IC50 value for cells with wildtype EGFR.
as §2
(§6) After 48-72 hours of transduction, 2 μg/ml puromycin (Invitrogen) was added to Ba/F3 cell lines in complete RPMI. To select for EGFR positive cell lines, cells were stained with PE-EGFR (Biolegend) and sorted by FACS. After sorting, EGFR positive cells were maintained in RPMI containing 10% FBS, 1% penicillin/streptomycin, and 1 ng/ml EGF to support cell viability. Drug screening was performed as previously described^41,42. Shortly, cells were plated in 384-well plates (Greiner Bio-One) at 2000-3000 cells per well in technical triplicate. Seven different concentrations of TKIs or DMSO vehicle were added to reach a final volume of 40 μL per well. After 72 hours, 11 μL of Cell Titer Glo (Promega) was added to each well. Plates were incubated for a minimum of 10 minutes, and bioluminescence was determined using a FLUOstar OPTIMA plate reader (BMG LABTECH). Raw bioluminescence values were normalized to DMSO control treated cells, and values were plotted in GraphPad Prism. […] Drug screens were performed in technical triplicate on each plate and either duplicate or triplicate biological replicates.

Test [11] has as its target T11, EGFR G719S T790M (Homo sapiens, UniProt P00533, G719S/T790M).
T11 construct: expressed in transfected cells; host or cells: Ba/F3
The note with it: T790M-like-3S, 72 hours.

The target of test [12] is T12, EGFR L858R T790M V843I (Homo sapiens, UniProt P00533, L858R/T790M/V843I).
T12 construct: expressed in transfected cells; host or cells: Ba/F3
The note with it: T790M-like-3S, 72 hours.
Method: as §5, §2, §6

Test [13] deals with T13, EGFR Ex19del T790M C797S (Homo sapiens, UniProt P00533, C797S/DEL746-750/T790M).
T13 construct: expressed in transfected cells; host or cells: Ba/F3
The note with it: T790M-like-3R, 72 hours.

In test [14] the target is T14, EGFR E709A G719S (Homo sapiens, UniProt P00533, E709A/G719S).
T14 construct: expressed in transfected cells; host or cells: Ba/F3
The following applies: PACC; E709A G719S; Ba/F3; 72 hours.

Test [15] addresses T15, EGFR G719S (Homo sapiens, UniProt P00533, G719S).
T15 construct: expressed in transfected cells; host or cells: Ba/F3
The note with it: PACC; G719S; Ba/F3; 72 hours.

Test [16] deals with T16, EGFR G724S (Homo sapiens, UniProt P00533, G724S).
T16 construct: expressed in transfected cells; host or cells: Ba/F3
The following applies: PACC; G724S; Ba/F3; 72 hours.

Test [17] relates to EGFR I740dupIPVAK. The note with it: PACC; I740dupIPVAK; Ba/F3; 72 hours.
Test [18] has as its target T17, EGFR L747P (Homo sapiens, UniProt P00533, L747P).
T17 construct: expressed in transfected cells; host or cells: Ba/F3
The following applies: PACC; L747P; Ba/F3; 72 hours.

Test [19] deals with T18, EGFR L747S (Homo sapiens, UniProt P00533, L747S).
T18 construct: expressed in transfected cells; host or cells: Ba/F3
The note with it: PACC; L747S; Ba/F3; 72 hours.
Method: (§7) Data represent the ratio of the IC50 value for a given TKI for cells with a PACC EGFR mutation to the IC50 value for cells with wildtype EGFR.
as §2, §6

In test [20] the target is T19, EGFR S768I (Homo sapiens, UniProt P00533, S768I).
T19 construct: expressed in transfected cells; host or cells: Ba/F3
The following applies: PACC; S768I; Ba/F3; 72 hours.
Method: as §7, §2, §4

Test [21] concerns the target T20, EGFR V769L (Homo sapiens, UniProt P00533, V769L).
T20 construct: expressed in transfected cells; host or cells: Ba/F3
The following applies: PACC; V769L; Ba/F3; 72 hours.
Method: as §7, §2, §6

In test [22] the target is T21, EGFR R776H (Homo sapiens, UniProt P00533, R776H).
T21 construct: host or cells: Ba/F3
The following applies: PACC; R776H; Ba/F3; 72 hours.

The target in test [23] is T22, EGFR Ex19del G796S (Homo sapiens, UniProt P00533, DEL746-750/G796S).
T22 construct: expressed in transfected cells; host or cells: Ba/F3
The note with it: PACC; Ex19del G796S; Ba/F3; 72 hours.
Method: as §7, §2, §6

For the compound `CNC(=O)CN1CCC(Oc2cc3c(Nc4cccc(Cl)c4F)ncnc3cc2OC)CC1` [Sapatinib], the “ratio of IC50 for cells with mutant EGFR to IC50 for cells with wildtype EGFR (Mut/WT)” value (shortened to “ratio of IC50 for cells with mutant EGFR”) in [1] came to 0.02084; in [2] it was 0.006619; in [3], 0.06664; in test [4], 0.004664; in test [5], 0.00307; in test [6], 0.01265. In addition, the “ratio of IC50 for cells with mutant EGFR” value was found to be 1.596 in [7]; 5.022 in test [8]; 1.103 in [9]; 54.78 in test [10]; 54.78 in test [11]; 49 in test [12]. Moreover, the “ratio of IC50 for cells with mutant EGFR” value in test [13] turned out to be 17.13; in test [14] it was 0.02227; in [15] it was 0.1998; in test [16] it was 0.141; in [17] it was 0.008351; in [18] it was 0.03076. In addition, the “ratio of IC50 for cells with mutant EGFR” value is listed as 0.005189 in [19]; 0.1883 in test [20]; 0.1992 in test [21]; 0.001939 in [22]; 3.423 in test [23].

The values above are taken from patent US20240384350A1, “METHODS OF TREATING CANCER WITH KINASE INHIBITORS” (BOARD OF REGENTS, THE UNIVERSITY OF TEXAS SYSTEM, priority 2021, published 2024).
